Source: PubChem BioAssay (NCI)
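How tested: cells in 96-well plates exposed to compound for 48 hours at five concentrations. TGI: concentration producing complete growth inhibition.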

Columns and labels:
Assay in all cases: NCI-60 cell line screen, 48 h
ACHN renal = tested on: ACHN renal
IGROV1 ovarian = tested on: IGROV1 ovarian
KM12 colon = tested on: KM12 colon
OVCAR-3 ovarian = tested on: OVCAR-3 ovarian
TK-10 renal = tested on: TK-10 renal
UACC-257 melanoma = tested on: UACC-257 melanoma
SNB-75 CNS = tested on: SNB-75 CNS
SK-MEL-28 melanoma = tested on: SK-MEL-28 melanoma
SN12C renal = tested on: SN12C renal
T-47D breast = tested on: T-47D breast
K-562 leukemia = tested on: K-562 leukemia
M14 melanoma = tested on: M14 melanoma
HCT-116 colon = tested on: HCT-116 colon
MALME-3M melanoma = tested on: MALME-3M melanoma
A498 renal = tested on: A498 renal
SK-MEL-5 melanoma = tested on: SK-MEL-5 melanoma
SNB-19 CNS = tested on: SNB-19 CNS
786-0 renal = tested on: 786-0 renal
EKVX NSCLC = tested on: EKVX NSCLC
SK-OV-3 ovarian = tested on: SK-OV-3 ovarian
OVCAR-5 ovarian = tested on: OVCAR-5 ovarian
MDA-N = tested on: MDA-N
OVCAR-8 ovarian = tested on: OVCAR-8 ovarian
PC-3 prostate = tested on: PC-3 prostate
NCI-H226 lung = tested on: NCI-H226 lung
HOP-92 NSCLC = tested on: HOP-92 NSCLC
UO-31 renal = tested on: UO-31 renal
LOX IMVI melanoma = tested on: LOX IMVI melanoma
DU-145 prostate = tested on: DU-145 prostate
CAKI-1 renal = tested on: CAKI-1 renal
HT29 colon = tested on: HT29 colon
SK-MEL-2 melanoma = tested on: SK-MEL-2 melanoma
BT-549 breast = tested on: BT-549 breast
NCI-H522 lung = tested on: NCI-H522 lung
SF-539 CNS = tested on: SF-539 CNS
MCF7 breast = tested on: MCF7 breast
SW-620 colon = tested on: SW-620 colon
MDA-MB-435 = tested on: MDA-MB-435
NCI-H460 lung = tested on: NCI-H460 lung
HCT-15 colon = tested on: HCT-15 colon
NCI/ADR-RES ovarian = tested on: NCI/ADR-RES ovarian
UACC-62 melanoma = tested on: UACC-62 melanoma
HS 578T breast = tested on: HS 578T breast
CCRF-CEM leukemia = tested on: CCRF-CEM leukemia
COLO 205 colon = tested on: COLO 205 colon
NCI-H23 lung = tested on: NCI-H23 lung
RXF 393 renal = tested on: RXF 393 renal
A549 NSCLC = tested on: A549 NSCLC
SF-295 CNS = tested on: SF-295 CNS
HCC-2998 colon = tested on: HCC-2998 colon
U251 CNS = tested on: U251 CNS
SF-268 CNS = tested on: SF-268 CNS
HOP-62 NSCLC = tested on: HOP-62 NSCLC
HL-60(TB) leukemia = tested on: HL-60(TB) leukemia
OVCAR-4 ovarian = tested on: OVCAR-4 ovarian
MDA-MB-231 breast = tested on: MDA-MB-231 breast
MOLT-4 leukemia = tested on: MOLT-4 leukemia
RPMI-8226 leukemia = tested on: RPMI-8226 leukemia
SR leukemia = tested on: SR leukemia

With `Cc1cc(C)c2c(=N)c3ccccc3n(CCCCCCCCn3c4ccccc4c(=N)c4c(C)cc(C)nc43)c2n1` the TGI (ACHN renal) was 2.91 µM, the TGI (IGROV1 ovarian) was 2.71 µM and the TGI (KM12 colon) was 1.42 µM. For the same compound, the TGI (OVCAR-3 ovarian) was 3.27 µM, the TGI (TK-10 renal) was 4.72 µM and the TGI (UACC-257 melanoma) was 3.01 µM. For the same compound, the TGI (SNB-75 CNS) was 2.18 µM, the TGI (SK-MEL-28 melanoma) was 3.02 µM and the TGI (SN12C renal) was 2.94 µM. It also gave a TGI (T-47D breast) of 3.23 µM, a TGI (K-562 leukemia) greater than 100 µM and a TGI (M14 melanoma) of 3.09 µM. The TGI (HCT-116 colon) was 1.59 µM, the TGI (MALME-3M melanoma) was 3.11 µM and the TGI (A498 renal) was 2.94 µM. For the same compound, the TGI (SK-MEL-5 melanoma) was 3.23 µM, the TGI (SNB-19 CNS) was 1.85 µM and the TGI (786-0 renal) was 2.28 µM. For the same compound, the TGI (EKVX NSCLC) was 2.91 µM, the TGI (SK-OV-3 ovarian) was 3.18 µM and the TGI (OVCAR-5 ovarian) was 3.69 µM. The TGI (MDA-N) was 2.78 µM, the TGI (OVCAR-8 ovarian) was 3.05 µM and the TGI (PC-3 prostate) was 2.86 µM. For the same compound, the TGI (NCI-H226 lung) was 3.38 µM, the TGI (HOP-92 NSCLC) was 2.87 µM and the TGI (UO-31 renal) was 2.81 µM. For the same compound, the TGI (LOX IMVI melanoma) was 2.61 µM, the TGI (DU-145 prostate) was 3.07 µM and the TGI (CAKI-1 renal) was 3.45 µM. The TGI (HT29 colon) was 1.16 µM, the TGI (SK-MEL-2 melanoma) was 3.03 µM and the TGI (BT-549 breast) was 3.29 µM.

In the case of `CCCCn1c(=O)[nH]c2c(N)ncnc21`, the TGI (ACHN renal) is reported as greater than 100 µM, the TGI (NCI-H522 lung) is reported as greater than 100 µM and the TGI (IGROV1 ovarian) is reported as greater than 100 µM. It also gave a TGI (SF-539 CNS) greater than 100 µM, a TGI (MCF7 breast) greater than 100 µM and a TGI (OVCAR-3 ovarian) greater than 100 µM. For the same compound, the TGI (TK-10 renal) was greater than 100 µM, the TGI (SW-620 colon) was greater than 100 µM and the TGI (MDA-MB-435) was greater than 100 µM. For the same compound, the TGI (UACC-257 melanoma) was greater than 100 µM, the TGI (NCI-H460 lung) was greater than 100 µM and the TGI (HCT-15 colon) was greater than 100 µM. For the same compound, the TGI (SNB-75 CNS) was greater than 100 µM, the TGI (NCI/ADR-RES ovarian) was greater than 100 µM and the TGI (SK-MEL-28 melanoma) was greater than 100 µM. It also gave a TGI (SN12C renal) greater than 100 µM, a TGI (UACC-62 melanoma) greater than 100 µM and a TGI (K-562 leukemia) greater than 100 µM. For the same compound, the TGI (M14 melanoma) was greater than 100 µM, the TGI (HCT-116 colon) was greater than 100 µM and the TGI (HS 578T breast) was greater than 100 µM. The TGI (MALME-3M melanoma) was greater than 100 µM, the TGI (A498 renal) was greater than 100 µM and the TGI (SK-MEL-5 melanoma) was greater than 100 µM. The TGI (SNB-19 CNS) was greater than 100 µM, the TGI (786-0 renal) was greater than 100 µM and the TGI (CCRF-CEM leukemia) was greater than 100 µM. For the same compound, the TGI (EKVX NSCLC) was greater than 100 µM, the TGI (COLO 205 colon) was greater than 100 µM and the TGI (NCI-H23 lung) was greater than 100 µM. The TGI (SK-OV-3 ovarian) was greater than 100 µM, the TGI (OVCAR-5 ovarian) was greater than 100 µM and the TGI (MDA-N) was greater than 100 µM. For the same compound, the TGI (OVCAR-8 ovarian) was greater than 100 µM, the TGI (PC-3 prostate) was greater than 100 µM and the TGI (RXF 393 renal) was greater than 100 µM. The TGI (NCI-H226 lung) was greater than 100 µM, the TGI (A549 NSCLC) was greater than 100 µM and the TGI (HOP-92 NSCLC) was greater than 100 µM. For the same compound, the TGI (SF-295 CNS) was greater than 100 µM, the TGI (UO-31 renal) was greater than 100 µM and the TGI (HCC-2998 colon) was greater than 100 µM. For the same compound, the TGI (U251 CNS) was greater than 100 µM, the TGI (SF-268 CNS) was greater than 100 µM and the TGI (HOP-62 NSCLC) was greater than 100 µM. The TGI (LOX IMVI melanoma) was greater than 100 µM, the TGI (DU-145 prostate) was greater than 100 µM and the TGI (HL-60(TB) leukemia) was greater than 100 µM. It also gave a TGI (OVCAR-4 ovarian) greater than 100 µM, a TGI (HT29 colon) greater than 100 µM and a TGI (MDA-MB-231 breast) greater than 100 µM. The TGI (SK-MEL-2 melanoma) was greater than 100 µM and the TGI (BT-549 breast) was greater than 100 µM.

Compound `CCOP(=O)(OCC)C(c1ccc(F)cc1)N(C(=O)NC(F)(F)F)c1ccc(F)cc1` (configuration not stated) has a TGI (ACHN renal) greater than 100 µM, a TGI (MOLT-4 leukemia) greater than 100 µM and a TGI (NCI-H522 lung) greater than 100 µM. For the same compound, the TGI (IGROV1 ovarian) was greater than 100 µM, the TGI (SF-539 CNS) was greater than 100 µM and the TGI (KM12 colon) was greater than 100 µM. It also gave a TGI (MCF7 breast) greater than 100 µM, a TGI (OVCAR-3 ovarian) greater than 100 µM and a TGI (TK-10 renal) greater than 100 µM. The TGI (SW-620 colon) was greater than 100 µM, the TGI (MDA-MB-435) was greater than 100 µM and the TGI (UACC-257 melanoma) was greater than 100 µM. For the same compound, the TGI (NCI-H460 lung) was greater than 100 µM, the TGI (HCT-15 colon) was greater than 100 µM and the TGI (SNB-75 CNS) was greater than 100 µM. It also gave a TGI (NCI/ADR-RES ovarian) greater than 100 µM, a TGI (SK-MEL-28 melanoma) greater than 100 µM and a TGI (SN12C renal) greater than 100 µM. It also gave a TGI (RPMI-8226 leukemia) greater than 100 µM, a TGI (K-562 leukemia) greater than 100 µM and a TGI (M14 melanoma) greater than 100 µM. It also gave a TGI (HCT-116 colon) greater than 100 µM, a TGI (HS 578T breast) greater than 100 µM and a TGI (MALME-3M melanoma) greater than 100 µM. The TGI (SK-MEL-5 melanoma) was greater than 100 µM, the TGI (SNB-19 CNS) was greater than 100 µM and the TGI (786-0 renal) was greater than 100 µM. For the same compound, the TGI (CCRF-CEM leukemia) was greater than 100 µM, the TGI (EKVX NSCLC) was greater than 100 µM and the TGI (COLO 205 colon) was greater than 100 µM. For the same compound, the TGI (NCI-H23 lung) was greater than 100 µM, the TGI (OVCAR-5 ovarian) was greater than 100 µM and the TGI (MDA-N) was greater than 100 µM. It also gave a TGI (OVCAR-8 ovarian) greater than 100 µM, a TGI (PC-3 prostate) greater than 100 µM and a TGI (RXF 393 renal) greater than 100 µM. For the same compound, the TGI (NCI-H226 lung) was greater than 100 µM, the TGI (A549 NSCLC) was greater than 100 µM and the TGI (SF-295 CNS) was greater than 100 µM. The TGI (SR leukemia) was greater than 100 µM, the TGI (UO-31 renal) was greater than 100 µM and the TGI (HCC-2998 colon) was greater than 100 µM. It also gave a TGI (U251 CNS) greater than 100 µM, a TGI (SF-268 CNS) greater than 100 µM and a TGI (HOP-62 NSCLC) greater than 100 µM. The TGI (LOX IMVI melanoma) was greater than 100 µM, the TGI (DU-145 prostate) was greater than 100 µM and the TGI (HL-60(TB) leukemia) was greater than 100 µM. It also gave a TGI (CAKI-1 renal) greater than 100 µM, a TGI (HT29 colon) greater than 100 µM and a TGI (MDA-MB-231 breast) greater than 100 µM.
